{"source": "patent US7951385B2", "about": "“Probiotic strain and antimicrobial peptide derived therefrom” (Cipla Medpro Research and Development (Pty) Ltd., priority 2006, dated 2011)", "key": {"Streptococcus pyogenes": {"tested_on": "Streptococcus pyogenes", "experiment": "β-galactosidase leakage after treatment of pathogens with peptide ST4SA", "type": "cell-based", "conditions": "Streptococcus pyogenes 20", "source_text": "(§1) Further evidence of cell membrane damage and leakage of cellular constituents was obtained by testing for extracellular DNA and extracellular β-galactosidase activity."}, "Enterococcus spp. HKLHS": {"tested_on": "Enterococcus spp. HKLHS", "experiment": "β-galactosidase leakage after treatment of pathogens with peptide ST4SA", "type": "cell-based", "conditions": "Control organism Enterococcus spp. HKLHS", "source_text": "as §1"}, "[1]": {"tested_on": "Middle ear isolates (unknown)", "experiment": "β-galactosidase leakage after treatment of pathogens with peptide ST4SA", "type": "cell-based", "source_text": "as §1"}, "Staphylococcus aureus": {"tested_on": "Staphylococcus aureus", "experiment": "β-galactosidase leakage after treatment of pathogens with peptide ST4SA", "type": "cell-based", "conditions": "Staphylococcus aureus 36", "source_text": "as §1"}, "Klebsiella pneumoniae": {"tested_on": "Klebsiella pneumoniae", "experiment": "β-galactosidase leakage after treatment of pathogens with peptide ST4SA", "type": "cell-based", "conditions": "Klebsiella pneumoniae 30", "source_text": "as §1"}, "Streptococcus pneumoniae": {"tested_on": "Streptococcus pneumoniae", "experiment": "β-galactosidase leakage after treatment of pathogens with peptide ST4SA", "type": "cell-based", "source_text": "as §1"}, "[2]": {"type": "physicochemical", "experimental": "The stability of peptide ST4SA, suspended in sterile distilled water, was tested at temperatures ranging from −20° C. to 60° C. over 42 days (FIG. 12). The peptide remained stable at −20° C. for 42 days and for three weeks at 4° C. […] Peptide ST4SA in powder form did, however, remain stable for 6 months at room temperature (25° C.). Peptide ST4SA will be produced in powder form and marketed as such. Once dissolved in sterile distilled water, peptide ST4SA may be kept for three weeks at 4° C. (see FIG. 12)."}, "[3]": {"tested_on": "Lactobacillus sakei DSM 20017", "experiment": "Blocking of the Lipid II target site with vancomycin", "type": "cell-based", "conditions": "L. sakei DSM 20017, FIG. 26", "source_text": "To test this hypothesis, the Lipid II target site of Lactobacillus sakei DSM 20017 (sensitive to peptide ST 4SA) was blocked with vancomycin (see schematic presentation, FIG. 26). Vancomycin adheres to the amino acid side chain of the Lipid II molecule, which would, theoretically, prevent peptide ST4SA from binding to the same site (that is if Lipid II acts as receptor). […] The fact that peptide ST4SA binds to more than one anchoring site on the sensitive cell may explain why it has such a broad spectrum of antimicrobial activity (inhibitory to Gram-positive and Gram-negative bacteria)."}, "pathogens tested": {"tested_on": "pathogens tested", "experiment": "Adhesion of peptide ST4SA to pathogens (summary)", "type": "binding", "conditions": "conclusion for the pathogens tested (Table 7)", "source_text": "Binding of peptide ST4SA to target cells is important to ensure penetration of the peptide. The ability of peptide ST4SA to adhere to pathogens was studied and the results were expressed as a percentage binding to the pathogens (Table 7). […] Adhesion of peptide ST4SA to the target cell leads to penetration and disruption of the cell membrane (FIG. 14)."}, "L. monocytogenes": {"tested_on": "L. monocytogenes", "experiment": "L. monocytogenes challenged with ST4SA in in vitro gastro-intestinal (GIT) model", "type": "cell-based, Listeria monocytogenes", "experimental": "The antimicrobial activity of ST4SA against L. monocytogenes in an in vitro gastro-intestinal model was determined. ST4SA was inoculated in the stomach vessel as described hereinbefore. L. monocytogenes (1×10^4) was inoculated in the duodenum vessel of the GIT. Samples were taken from each vessel and plated out on Enterococcus and Listeria specific medium, respectively. As control, only L. monocytogenes was inoculated in the GIT model."}, "[4]": {"tested_on": "Lactobacillus sakei DSM 20017", "experiment": "Binding of peptide ST4SA to polyethylene (PE)", "type": "physicochemical", "experimental": "Binding of peptide ST4SA to polyethylene (PE) was tested. PE film was cut into sections of 5×5 cm and soaked for 1 h in a solution of 60% isopropanol and peptide ST4SA (activity level: 102 400 AU/ml). The PE sections were air-dried (20 min at 60° C.) and assayed for antimicrobial activity by using the standard agar diffusion method. The plates, seeded with L. sakei DSM 20017, were incubated for 24 h at 30° C. and examined for zones of growth inhibition.\nThe strength of binding was determined by soaking the peptide-coated PE film in SDS-buffer, followed by electro-eluting peptide ST4SA from the film with a current of 30 mA for 2 h (room temperature, i.e. ca. 25° C.). Samples were taken at regular time intervals and tested for antimicrobial activity. Protein concentrations were determined by using the Bradford method. Electro-eluted film was tested for antimicrobial activity by using the agar diffusion method as before."}, "[5]": {"tested_on": "Pseudomonas sp. isolated from infected middle-ear fluid", "experiment": "Activity on paper disks and comparison with antibiotics (inhibition zones)", "type": "cell-based", "experimental": "Activity was tested against a Pseudomonas sp. isolated from infected middle-ear fluid."}}, "note": "Like-named read-outs stand apart in the source and are kept apart here.", "data": [{"substance": "Peptide ST4SA: broad-spectrum antibacterial peptide (bacteriocin) produced by Enterococcus mundtii strain ST4SA, SEQ. ID. NO. 12 (MSQVVGGKYYGNGVSCNKKGCSVDWGKAIGIIGNNSAANLATGGAAGWKS; ENTEROCOCCUS MUNDTII ST4SA)", "values": [{"measurement": "β-galactosidase recorded at OD420", "setting": "Streptococcus pyogenes", "result": "No leakage"}, {"measurement": "β-galactosidase recorded at OD420", "setting": "Enterococcus spp. HKLHS", "result": "No leakage"}, {"measurement": "β-galactosidase recorded at OD420", "setting": "[1]; Middle ear isolate BW", "result": 0.370}, {"measurement": "β-galactosidase recorded at OD420", "setting": "[1]; Middle ear isolate DW", "result": 0.293}, {"measurement": "β-galactosidase recorded at OD420", "setting": "[1]; Middle ear isolate F", "result": 0.318}, {"measurement": "β-galactosidase recorded at OD420", "setting": "[1]; Middle ear isolate GW", "result": 0.373}, {"measurement": "β-galactosidase recorded at OD420", "setting": "[1]; Middle ear isolate HW", "result": 0.235}, {"measurement": "β-galactosidase recorded at OD420", "setting": "[1]; Middle ear isolate K", "result": "No leakage"}, {"measurement": "β-galactosidase recorded at OD420", "setting": "[1]; Middle ear isolate L", "result": "No leakage"}, {"measurement": "β-galactosidase recorded at OD420", "setting": "[1]; Middle ear isolate M", "result": "No leakage"}, {"measurement": "β-galactosidase recorded at OD420", "setting": "Staphylococcus aureus", "result": "No leakage"}, {"measurement": "β-galactosidase recorded at OD420", "setting": "Klebsiella pneumoniae", "result": "No leakage"}, {"measurement": "β-galactosidase recorded at OD420", "setting": "Streptococcus pneumoniae; Streptococcus pneumoniae 27", "result": "No leakage"}, {"measurement": "β-galactosidase recorded at OD420", "setting": "Streptococcus pneumoniae; Streptococcus pneumoniae 29", "result": "No leakage"}, {"measurement": "β-galactosidase recorded at OD420", "setting": "Streptococcus pneumoniae; Streptococcus pneumoniae D", "result": "No leakage"}, {"measurement": "Stability", "setting": "[2]", "result": "Stability decreased after one week"}, {"measurement": "Time peptide remained stable", "setting": "[2]; powder form, room temperature (25° C.)", "result": 6, "unit": "months"}, {"measurement": "Time peptide remained stable", "setting": "[2]; suspended in sterile distilled water, 4° C.", "result": "three weeks"}, {"measurement": "Time peptide remained stable", "setting": "[2]; suspended in sterile distilled water, −20° C.", "result": 42, "unit": "days"}, {"measurement": "Effect on target cells after blocking Lipid II with vancomycin", "setting": "[3]", "result": "resulted in growth inhibition"}, {"measurement": "percentage binding to the pathogens", "setting": "pathogens tested", "result": "at least 75%"}, {"measurement": "L. monocytogenes lower than control", "setting": "L. monocytogenes; ileum vessel, compared with the control", "result": "1×10^1 cfu/ml"}, {"measurement": "Growth of L. monocytogenes", "setting": "L. monocytogenes; jejunum vessel, reduced from 8×10^4 (control)", "result": "2×10^4"}, {"measurement": "Time to adsorb to PE", "setting": "[4]; PE film, 60% isopropanol, peptide 102 400 AU/ml", "result": "≤ 60", "unit": "s"}, {"measurement": "Antimicrobial activity of peptide-coated PE film", "setting": "[4]; agar diffusion, L. sakei DSM 20017", "result": "high antimicrobial activity"}, {"measurement": "Time to release of peptide from the surface of PE", "setting": "[4]; electro-elution, current of 30 mA, SDS-buffer", "result": "≥ 1", "unit": "h"}, {"measurement": "Diameter of inhibition zones", "setting": "[5]; Ampicillin 10 μg, Bacitracin 10 units, Chloramphenicol 30 μg, Erythromycin 15 μg, Tetracycline 30 μg, peptide on paper disk", "result": 25, "unit": "mm"}, {"measurement": "Activity of peptide ST4SA on paper disks", "setting": "[5]; Freeze dried", "result": 409600, "unit": "AU/ml"}, {"measurement": "Activity of peptide ST4SA on paper disks", "setting": "[5]; Paper disk (0.6 cm diameter)", "result": 20263, "unit": "AU/ml"}, {"measurement": "Activity of peptide ST4SA on paper disks", "setting": "[5]; Paper disk (2 cm × 2 cm; 700 μl)", "result": 286720, "unit": "AU/ml"}]}]}
